Positions of bridges follow the written chain, without caps; N, C: chain ends. No end group written: not given here.

Assay [1] deals with CD31-positive plaque neovascularization. The experiment in a line: Immunofluorescence of FITC-GEBP11 and CD31 in plaque tissue sections. More on the design: species or system rabbit.
Another assay deals with EAhy926 cells. The experiment in a line: Immunofluorescence staining of FITC-GEBP11 in hypoxia-treated cells. The assay is classed as cell-based. The note with it: FITC-labelled peptide, after hypoxia treatment.

Consider “CTKNSYLMC (disulfide 1-9 (inferred)) [GEBP11 peptide]”, for which the “cell selectivity by immunofluorescence staining” value in assay [1] (endothelial cells versus macrophages) is recorded as “selectively target endothelial cells rather than macrophages”. The “co-localization with CD31 in plaque section” value in assay [1] (rabbit plaque tissue sections, confocal microscopy) was “well co-localized with CD31-positive plaque neovascularization and vasa vasorum”. The “binding affinity to EAhy926 cells” value in the assay with EAhy926 cells is reported as “high binding affinity”.

The values are drawn from publication PMC5706100 (Theranostics, 2017).
